{"source": "ChEMBL document CHEMBL1201862", "about": "“PubChem BioAssay data set” (2004)", "key": {"cells [1]": {"assay": "cells", "assay_type": "functional, cell-based"}, "cells [2]": {"assay": "cells", "assay_type": "functional, cell-based", "remark": "listed apart in the source"}, "[3]": {"biological_target": "DNA repair and recombination protein RAD54-like (Homo sapiens, UniProt Q92698)", "sequence (Q92698 whole entry)": "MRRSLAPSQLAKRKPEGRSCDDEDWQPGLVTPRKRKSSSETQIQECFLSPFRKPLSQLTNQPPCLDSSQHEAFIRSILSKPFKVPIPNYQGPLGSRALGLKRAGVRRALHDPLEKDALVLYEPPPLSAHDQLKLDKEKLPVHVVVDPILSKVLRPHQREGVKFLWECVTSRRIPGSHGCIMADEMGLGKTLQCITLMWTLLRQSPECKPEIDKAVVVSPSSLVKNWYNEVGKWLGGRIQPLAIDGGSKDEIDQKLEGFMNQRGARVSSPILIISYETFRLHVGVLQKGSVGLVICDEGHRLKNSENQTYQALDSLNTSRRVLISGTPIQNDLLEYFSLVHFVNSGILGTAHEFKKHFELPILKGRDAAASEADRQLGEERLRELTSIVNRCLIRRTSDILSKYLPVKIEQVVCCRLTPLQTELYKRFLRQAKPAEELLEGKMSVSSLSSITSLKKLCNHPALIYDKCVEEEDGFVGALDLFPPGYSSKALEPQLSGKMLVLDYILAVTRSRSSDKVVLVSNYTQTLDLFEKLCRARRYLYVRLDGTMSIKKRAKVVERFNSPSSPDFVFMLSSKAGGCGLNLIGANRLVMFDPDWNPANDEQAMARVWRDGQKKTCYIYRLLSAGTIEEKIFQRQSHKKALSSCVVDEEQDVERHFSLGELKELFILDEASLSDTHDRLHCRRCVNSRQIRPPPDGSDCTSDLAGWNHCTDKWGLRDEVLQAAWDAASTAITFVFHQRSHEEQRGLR", "assay": "inhibitors of human RAD54 branch migration, confirmation, biochemical, fluorescence, cherry-picked samples, dose series (AID 651657)", "assay_type": "functional"}, "Cysteine protease ATG4B": {"biological_target": "T1, Cysteine protease ATG4B (Homo sapiens, UniProt Q9Y4P1)", "T1 sequence (Q9Y4P1 whole entry)": "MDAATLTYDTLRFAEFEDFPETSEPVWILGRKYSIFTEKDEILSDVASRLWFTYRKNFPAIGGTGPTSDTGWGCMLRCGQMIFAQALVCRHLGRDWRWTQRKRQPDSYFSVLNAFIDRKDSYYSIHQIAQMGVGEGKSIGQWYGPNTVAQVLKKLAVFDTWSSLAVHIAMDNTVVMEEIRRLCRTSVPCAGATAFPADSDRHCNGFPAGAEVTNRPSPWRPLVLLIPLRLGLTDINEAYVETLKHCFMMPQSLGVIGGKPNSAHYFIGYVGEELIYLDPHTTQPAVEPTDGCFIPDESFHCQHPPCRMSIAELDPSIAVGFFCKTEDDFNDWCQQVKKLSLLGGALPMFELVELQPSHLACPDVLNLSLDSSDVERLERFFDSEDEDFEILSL", "assay_type": "functional"}, "[4]": {"assay": "inhibitors of HIV Env-driven cell fusion, dose response, cherry-pick (AID 652057)", "assay_type": "functional, cell-based"}, "[5]": {"assay": "Luminescence Cell-Based Dose Retest to Confirm Inhibitors of Cancer Stem Cells. [Related pubchem assays (depositor defined):AID2717, AID2721]", "assay_type": "functional", "conditions": "Homo sapiens"}, "[6]": {"assay": "inhibitors of clade B AD8 Env fusion, dose response, cell-based, cherry-pick (AID 652062);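 further: potency is for inhibitors of fusion seen as a drop in luminescence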", "assay_type": "functional"}, "[7]": {"assay": "CEM21 lymphoblast cell cytotoxicity, dose response, cytotoxicity control for viral fusion inhibitor project, CellTiter-Glo luminescence, cherry-picked (AID 652042);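 further: potency for signal decrease meaning cytotoxicity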", "assay_type": "functional, cell-based"}, "[8]": {"assay": "off-target signal loss in HeLa-CEM21 co-culture – HeLa F-luc CTL cells, cherry-picked, counter-screen for HIV-1 Env fusion inhibitor project, dose response (AID 652040);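 further: potency for signal decrease marking cytotoxic or nonspecific inhibition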", "assay_type": "functional, cell-based"}, "Phospholipase A2": {"biological_target": "Phospholipase A2 (Homo sapiens, UniProt P04054)", "sequence (P04054 whole entry)": "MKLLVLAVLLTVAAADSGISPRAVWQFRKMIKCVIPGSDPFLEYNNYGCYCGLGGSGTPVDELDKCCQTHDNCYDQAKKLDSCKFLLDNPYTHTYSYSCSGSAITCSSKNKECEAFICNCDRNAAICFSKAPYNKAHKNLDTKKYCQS", "assay_type": "functional"}, "[9]": {"biological_target": "Ras and Rab interactor 1/Tyrosine-protein kinase ABL1 (Homo sapiens, UniProt P00519+Q13671)", "sequence (P00519 whole entry)": "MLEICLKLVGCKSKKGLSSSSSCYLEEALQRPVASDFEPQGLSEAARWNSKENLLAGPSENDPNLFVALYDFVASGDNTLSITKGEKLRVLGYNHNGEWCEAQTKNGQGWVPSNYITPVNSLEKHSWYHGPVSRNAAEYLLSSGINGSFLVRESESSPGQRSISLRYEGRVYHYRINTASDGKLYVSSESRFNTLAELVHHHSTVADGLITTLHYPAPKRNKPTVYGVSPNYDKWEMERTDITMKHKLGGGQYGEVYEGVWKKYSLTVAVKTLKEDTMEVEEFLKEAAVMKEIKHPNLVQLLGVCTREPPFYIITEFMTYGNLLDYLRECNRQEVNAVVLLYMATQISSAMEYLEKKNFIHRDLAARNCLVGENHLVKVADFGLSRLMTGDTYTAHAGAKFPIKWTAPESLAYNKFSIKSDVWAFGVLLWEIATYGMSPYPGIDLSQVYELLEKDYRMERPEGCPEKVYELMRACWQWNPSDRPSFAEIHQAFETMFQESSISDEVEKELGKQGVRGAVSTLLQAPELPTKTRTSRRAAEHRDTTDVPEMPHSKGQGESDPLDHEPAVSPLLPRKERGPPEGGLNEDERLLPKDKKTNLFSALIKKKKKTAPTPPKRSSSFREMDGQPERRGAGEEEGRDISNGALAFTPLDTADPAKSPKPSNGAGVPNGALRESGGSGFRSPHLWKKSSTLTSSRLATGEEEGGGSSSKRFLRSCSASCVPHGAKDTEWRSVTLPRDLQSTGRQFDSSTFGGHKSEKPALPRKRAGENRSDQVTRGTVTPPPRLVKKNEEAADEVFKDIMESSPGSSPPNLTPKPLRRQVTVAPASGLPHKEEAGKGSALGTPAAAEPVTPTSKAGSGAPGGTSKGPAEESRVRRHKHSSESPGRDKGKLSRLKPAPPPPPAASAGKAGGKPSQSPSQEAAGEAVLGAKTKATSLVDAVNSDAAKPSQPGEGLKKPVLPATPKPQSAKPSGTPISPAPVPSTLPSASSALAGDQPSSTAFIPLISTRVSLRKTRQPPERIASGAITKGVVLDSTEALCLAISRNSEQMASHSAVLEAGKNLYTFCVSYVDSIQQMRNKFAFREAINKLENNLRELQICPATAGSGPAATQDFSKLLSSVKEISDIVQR", "sequence (Q13671 whole entry)": "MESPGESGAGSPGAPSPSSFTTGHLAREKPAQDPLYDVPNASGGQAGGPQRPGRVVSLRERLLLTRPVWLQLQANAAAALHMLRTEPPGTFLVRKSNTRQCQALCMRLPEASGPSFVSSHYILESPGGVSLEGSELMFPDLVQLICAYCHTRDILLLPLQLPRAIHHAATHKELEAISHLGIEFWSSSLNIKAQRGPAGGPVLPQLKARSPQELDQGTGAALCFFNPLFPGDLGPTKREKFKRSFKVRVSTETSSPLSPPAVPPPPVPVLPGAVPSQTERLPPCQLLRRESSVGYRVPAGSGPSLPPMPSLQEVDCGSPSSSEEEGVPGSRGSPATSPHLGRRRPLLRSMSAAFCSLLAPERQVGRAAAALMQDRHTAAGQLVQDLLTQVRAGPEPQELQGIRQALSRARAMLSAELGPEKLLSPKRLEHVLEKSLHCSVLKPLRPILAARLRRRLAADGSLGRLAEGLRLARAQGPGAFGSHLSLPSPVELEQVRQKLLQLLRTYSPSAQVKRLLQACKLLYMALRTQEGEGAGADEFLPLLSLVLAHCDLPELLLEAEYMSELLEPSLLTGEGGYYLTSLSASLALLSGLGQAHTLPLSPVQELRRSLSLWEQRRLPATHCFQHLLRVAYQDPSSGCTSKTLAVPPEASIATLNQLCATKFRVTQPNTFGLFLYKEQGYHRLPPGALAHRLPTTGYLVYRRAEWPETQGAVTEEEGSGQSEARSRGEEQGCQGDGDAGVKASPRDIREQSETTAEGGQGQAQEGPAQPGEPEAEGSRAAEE", "assay_type": "functional"}, "[10]": {"assay": "intracellular Trypanosoma cruzi inhibitors in host cells – cell-based, plate reader, cherry-pick samples, set 3, dose response (AID 651818);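 further: compounds incubated with infected cells for about four days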", "assay_type": "functional"}, "[11]": {"biological_target": "T2, Sentrin-specific protease 8 (Homo sapiens, UniProt Q96LD8)", "T2 sequence (Q96LD8 whole entry)": "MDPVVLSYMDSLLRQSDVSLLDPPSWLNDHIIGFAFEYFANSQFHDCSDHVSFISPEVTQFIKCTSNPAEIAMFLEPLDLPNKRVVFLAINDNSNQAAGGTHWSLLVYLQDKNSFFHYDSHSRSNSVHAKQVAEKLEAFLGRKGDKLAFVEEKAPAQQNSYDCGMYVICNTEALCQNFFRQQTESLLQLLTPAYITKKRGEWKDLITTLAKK", "assay_type": "functional"}, "[12]": {"biological_target": "T2, Sentrin-specific protease 8", "assay_type": "functional", "remark": "listed apart in the source"}, "[13]": {"biological_target": "T3, Histone-lysine N-methyltransferase NSD2 (Homo sapiens, UniProt O96028)", "T3 sequence (O96028 whole entry)": "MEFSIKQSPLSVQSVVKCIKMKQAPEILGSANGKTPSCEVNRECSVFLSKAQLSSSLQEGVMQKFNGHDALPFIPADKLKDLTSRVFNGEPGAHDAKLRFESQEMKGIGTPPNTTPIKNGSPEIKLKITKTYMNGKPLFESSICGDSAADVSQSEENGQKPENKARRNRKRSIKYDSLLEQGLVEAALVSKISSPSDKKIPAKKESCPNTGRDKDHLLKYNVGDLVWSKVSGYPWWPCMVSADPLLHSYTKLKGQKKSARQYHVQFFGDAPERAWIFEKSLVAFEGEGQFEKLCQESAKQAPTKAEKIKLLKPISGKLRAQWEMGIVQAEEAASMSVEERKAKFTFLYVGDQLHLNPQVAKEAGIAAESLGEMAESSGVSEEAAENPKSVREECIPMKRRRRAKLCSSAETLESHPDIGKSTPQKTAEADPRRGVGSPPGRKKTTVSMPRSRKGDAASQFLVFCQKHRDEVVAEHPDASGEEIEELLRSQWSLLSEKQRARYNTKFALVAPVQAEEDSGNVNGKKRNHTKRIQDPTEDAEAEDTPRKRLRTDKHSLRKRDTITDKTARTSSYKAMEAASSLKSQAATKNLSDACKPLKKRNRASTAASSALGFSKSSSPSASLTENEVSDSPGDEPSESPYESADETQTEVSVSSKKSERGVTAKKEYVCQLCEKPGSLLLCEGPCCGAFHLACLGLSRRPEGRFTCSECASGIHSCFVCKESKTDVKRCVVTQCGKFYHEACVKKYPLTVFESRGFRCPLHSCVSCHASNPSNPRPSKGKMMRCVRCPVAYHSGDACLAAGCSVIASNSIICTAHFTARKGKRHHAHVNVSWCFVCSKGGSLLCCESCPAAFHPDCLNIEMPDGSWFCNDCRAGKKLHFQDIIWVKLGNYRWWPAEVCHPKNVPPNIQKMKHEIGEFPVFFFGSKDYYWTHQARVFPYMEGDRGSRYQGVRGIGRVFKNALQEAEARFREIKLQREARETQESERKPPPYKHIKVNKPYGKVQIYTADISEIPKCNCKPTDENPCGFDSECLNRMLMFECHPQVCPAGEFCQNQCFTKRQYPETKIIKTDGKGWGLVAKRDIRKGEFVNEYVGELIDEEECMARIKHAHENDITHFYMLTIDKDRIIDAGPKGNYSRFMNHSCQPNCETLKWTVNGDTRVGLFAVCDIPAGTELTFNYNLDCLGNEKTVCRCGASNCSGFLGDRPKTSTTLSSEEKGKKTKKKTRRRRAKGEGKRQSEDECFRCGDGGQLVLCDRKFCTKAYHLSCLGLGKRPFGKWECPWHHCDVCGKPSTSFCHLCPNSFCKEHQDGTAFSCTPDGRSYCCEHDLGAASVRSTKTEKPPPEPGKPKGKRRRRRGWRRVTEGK", "assay_type": "biochemical"}, "[14]": {"assay": "MC4R antagonists, dose response, counter-screen for LGR2 antagonist project, cell-based, plate reader, cherry pick (AID 743444);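 further: transfected HEK 293 cells stimulated with alpha-MSH peptide; potency of inhibitors of the alpha-MSH evoked signal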", "assay_type": "functional"}, "cells [15]": {"assay": "cells", "assay_type": "functional, cell-based", "remark": "listed apart in the source"}, "[16]": {"assay": "inhibitors of SNCA 5'UTR-driven reporter translation, confirmation, H4 neuroglioma cells, luminescence (AID 1988)", "assay_type": "functional, cell-based"}, "[17]": {"assay": "LGR2 antagonists, dose response, cell-based, HEK293, CRE-luciferase reporter, cherry pick, set 2 (AID 743343);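 further: transfected cells were stimulated with diluted bursicon conditioned medium after compound addition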", "assay_type": "functional"}, "[18]": {"biological_target": "T4, Nuclear receptor subfamily 0 group B member 1 (Homo sapiens, UniProt P51843)", "T4 sequence (P51843 whole entry)": "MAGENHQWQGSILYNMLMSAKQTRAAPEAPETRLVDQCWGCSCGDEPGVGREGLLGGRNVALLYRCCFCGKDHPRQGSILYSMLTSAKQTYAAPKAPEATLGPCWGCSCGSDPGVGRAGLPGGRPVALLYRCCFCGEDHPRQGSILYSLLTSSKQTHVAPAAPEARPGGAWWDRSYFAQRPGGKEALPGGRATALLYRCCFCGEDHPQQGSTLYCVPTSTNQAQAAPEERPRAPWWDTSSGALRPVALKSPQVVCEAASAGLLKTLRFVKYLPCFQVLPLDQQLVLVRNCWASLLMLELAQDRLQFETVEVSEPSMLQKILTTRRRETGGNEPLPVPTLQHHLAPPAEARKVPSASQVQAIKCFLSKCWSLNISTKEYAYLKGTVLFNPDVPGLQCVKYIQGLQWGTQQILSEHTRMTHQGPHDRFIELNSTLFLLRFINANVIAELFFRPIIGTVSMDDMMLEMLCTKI", "assay_type": "functional, cell-based"}, "HEK293": {"system": "HEK293", "assay": "inhibitors of LMP1-driven NF-kB reporter, dose response, cell-based, HEK293, luciferase, cherry-pick (AID 588343)", "assay_type": "functional", "conditions": "Homo sapiens"}, "[19]": {"assay": "Luminescence Cell-Based Dose Response HTS to Identify Inhibitors of 5'UTR Stem-Loop Driven Prion Protein mRNA Translation in H4 Neuroglioblastoma Cells. [Related pubchem assays: 1827 (Project Summary), 1813 (Primary HTS)]", "assay_type": "functional"}, "[20]": {"assay": "inhibitors of firefly luciferase expression or activity, dose response, H4 neuroglioma cells, luminescence (AID 1990)", "assay_type": "functional, cell-based"}}, "note": "Calls of active or inactive are those of the source."}
{"smiles": "CCCN1CN(CCc2ccccc2)CN=C1S", "values": [{"measurement": "IC50", "setting": "cells [1]", "value": "> 29.9 µM (inactive)"}, {"measurement": "EC50", "setting": "cells [2]", "value": "> 29.9 µM (inactive)"}]}
{"smiles": "NNC(=O)c1oc2nc(-c3cccs3)cc(-c3ccco3)c2c1N", "values": [{"measurement": "AC50", "setting": "[3]", "value": "16.6 µM (active)"}]}
{"smiles": "CCC(=O)NC(=S)Nc1cccc(Cl)c1N1CCCCC1", "values": [{"measurement": "IC50", "setting": "Cysteine protease ATG4B", "value": "6.09 µM (active)"}, {"measurement": "AC50", "setting": "[4]", "value": "17.3 µM (active)"}, {"measurement": "AC50", "setting": "[5]", "value": "5.27 µM (active)"}, {"measurement": "AC50", "setting": "[6]", "value": "38.5 µM (active)"}, {"measurement": "AC50", "setting": "[7]", "value": "36.5 µM (active)"}, {"measurement": "AC50", "setting": "[8]", "value": "> 70 µM (inactive)"}, {"measurement": "IC50", "setting": "Phospholipase A2", "value": "3.78 µM (active)"}]}
{"smiles": "O=C(Cc1ccc(NC(=O)C2CCN(C(=O)C3CCCC3)CC2)cc1)Nc1cccc(C(=O)N2CCCCC2)c1", "values": [{"measurement": "IC50", "setting": "[9]", "value": "29.2 µM (inactive)"}]}
{"smiles": "C[C@@H]1CN([C@H](C)CO)C(=O)Cc2cc(NS(=O)(=O)c3ccccc3)ccc2O[C@H]1CN(C)Cc1ccc(Cl)c(Cl)c1", "values": [{"measurement": "AC50", "setting": "[10]", "value": "3.13 µM (active)"}]}
{"smiles": "C[C@@H]1CN([C@@H](C)CO)C(=O)c2cccc(NC(=O)Nc3ccc4c(c3)OCO4)c2O[C@H]1CN(C)Cc1ccc(Oc2ccccc2)cc1", "values": [{"measurement": "AC50", "setting": "[10]", "value": "1.92 µM (active)"}]}
{"smiles": "Cc1n[nH]c(O)c1C(c1ccc(-c2ccc(Cl)cc2)o1)c1c(C)n[nH]c1O", "values": [{"measurement": "IC50", "setting": "[11]", "value": "12.9 µM (active)"}, {"measurement": "IC50", "setting": "[12]", "value": "36.3 µM (active)"}, {"measurement": "AC50", "setting": "[13]", "value": "8.22 µM (active)"}]}
{"smiles": "COC(=O)c1ccc2nc(-c3cccc(N)c3)cn2c1", "values": [{"measurement": "AC50", "setting": "[14]", "value": "2.62 µM (active)"}, {"measurement": "IC50", "setting": "cells [15]", "value": "> 67.5 µM (inactive)"}, {"measurement": "EC50", "setting": "[16]", "value": "6.89 µM (active)"}, {"measurement": "AC50", "setting": "[17]", "value": "3.22 µM (active)"}, {"measurement": "IC50", "setting": "[18]", "value": "> 0.834 µM (active)"}, {"measurement": "AC50", "setting": "HEK293", "value": "2.21 µM (active)"}, {"measurement": "EC50", "setting": "[19]", "value": "> 60 µM (not active)"}, {"measurement": "EC50", "setting": "[20]", "value": "> 60 µM (not active)"}]}
